Test results: patent publication EP1472347B1, “IMPROVED PROTEIN EXPRESSION IN BACILLUS SUBTILIS” (Danisco US Inc., priority 2002, dated 2003)
No end group written: not given here.

Test system: aprE transcription
Experiment: β-galactosidase assay of the aprE-lacZ transcriptional fusion with synthetic Phr pentapeptides added to the medium
Format: cell-based, B. subtilis AL
Conditions: for aprE transcription (β-galactosidase activity, relative to wild-type): 10 µM pentapeptide in TY medium at 37°C, 4 hours after transition point between exponential and post-exponential growth, strain grown without Phr peptides (WT) set to 100%
Experimental: Figure 1 provides a bar graph depicting the different effects of Phr pentapeptides on aprE transcription. The transcription of the aprE-IacZ gene fusion in B. subtilis AL grown in TY medium at 37°C in the presence of 10 µM of one of the following pentapeptides (see Table II): PhrA (A), PhrC, (C), PhrE (E), PhrF (F), PhrG (G), PhrI (I) or PhrK (K), or in the absence of pentapeptides (-), was measured 4 hours after the transition point between the exponential and post-exponential growth phases. β-galactosidase activities were determined in Units per OD600 (% of WT; aprE-lacZ transcription level of the strain grown in the absence of Phr peptides [WT] is set to 100%).
Figure 2 provides a graph showing that PhrE stimulates aprE transcription. […] Zero time (T0) indicates the transition point between the exponential and post-exponential growth phases.
Overnight cultures were diluted to an optical density (OD600) of 0.1 in fresh TY medium, supplemented with Phr60 pentapeptide, as appropriate. Samples for OD600 readings and β-galactosidase activity determinations were taken at hourly intervals. The assay and the calculation of β-galactosidase activity (expressed as units per OD600) of the samples was performed as known In the art (See, Miller, Experiments In Molecular Genetics, Cold Spring Harbor Laboratory Press, NY, [1982]).
To analyze whether chromosomally-encoded Rap-Phr systems might be Involved in protease production, B. subtilis AL (bearing an aprE-lacZ transcriptional fusion), was grown in TY medium supplemented with synthetic PhrA, -C, -E, -F, -G, -H, -I, or -K pentapeptides (Table II).
In this Example, experiments conducted to further assess the effects of Rap-Phr systems on the transcription of aprE are described. The RapE-PhrE system was used as a model for two reasons. […] To determine the effect of PhrE on aprE transcription during growth, synthetic PhrE was added at two concentrations (1 and 10 µg/ml) to the medium of B. subtilis AL. […] It was also noted that in the latter case, aprE transcription seemed to be improved during all growth phases.

Row | Substance | aprE transcription (β-galactosidase activity, relative to wild-type) | effect on aprE transcription compared with all Phr pentapeptides tested (Figure 1, 10 µM pentapeptide, post-exponential growth phase) | aprE transcription during growth (time course) (synthetic PhrE added at two concentrations (1 and 10 µg/ml) to the medium of B. subtilis AL, TY medium, 37°C, Figure 2)
1 | ARNQT [PhrA] | 100-120 % relative to wild-type | – | –
2 | DRVGA [PhrI] | 100-120 % relative to wild-type | – | –
3 | EKMIG [PhrG] | 100-120 % relative to wild-type | – | –
4 | ERGMT [PhrC] | ~60 % relative to wild-type | – | –
5 | ERPVG [PhrK] | 100-120 % relative to wild-type | – | –
6 | QRGMI [PhrF] | ~135 % relative to wild-type | – | –
7 | SRNVT [PhrE] | ~135 % relative to wild-type | strongest positive effect on aprE transcription | improved by the addition of PhrE only during the post-exponential growth phase in a PhrE concentration-dependent manner
